Laboratory results from patent US20260274922A1, “SYNTHETIC ESTROGEN RECEPTOR (ER)-DERIVED PEPTIDE” (THE TEXAS A&M UNIVERSITY SYSTEM, priority 2023, published 2026).
Where no end group is shown, it is not given here. The star is where a group is joined. FITC = O=C1OC2(c3ccc(O)cc3Oc3cc(O)ccc32)c2ccc(NC(=S)*)cc21

How the values were obtained:
[1] = test system: DKO male mice; test: AF1 peptide treatment of liver-specific IRS1 and IRS2 knockout (DKO) mice; type: in vivo, mouse
Method: Animal studies. All animal experiments were performed following procedures approved by the Texas A&M University Institutional Animal Care and Use Committee. Mice are housed at 22-24° C. and maintained on a 12 h light/12 h dark cycle with a standard chow diet (58% calories from carbohydrate, 18% from fat, and 24% from protein, 3.1 kcal/g, with a reduced phytoestrogen content; Teklad Diet) ad libitum. Liver-specific ERα (ERα^LivKO) or ERβ (ERβ^LivKO) knockout mice were generated by crossing ERα or ERβ flox mice (gift from Dr. Yong Xu, Baylor College of Medicine) with Albumin-Cre mice purchased from The Jackson Laboratory (Strain #003574), respectively. Liver IRS1 and IRS2 double knockout (DKO) mice were generated by breeding IRS1 and IRS2 flox (IRS1^L/L::IRS2^L/L) mice with Albumin-Cre mice. Liver IRS1, IRS2, and ERα triple knockout (TKO) mice were generated by crossing DKO mice with ERα^LivKO mice. All mice were on C57B/6J background. Db/db mice were purchased from The Jackson Laboratory (Strain #000697). Female mice at age of 2-month-old underwent a bilateral ovariectomy (OVX) surgery; these mice were used to perform experiments 4 weeks after OVX surgery. All the mice experiments were performed with age- and gender-matched mice with their health status examined daily by the investigators and technicians from Texas A&M University LARR Animal Facility. Littermate controls were used if possible.
(§1) Glucose and insulin tolerance tests. For glucose tolerance tests, mice were fasted for 16 h and intraperitoneally (i.p.) injected with dextrose (1 g/kg body weight for mice fed with regular diet; 0.5 g/kg body weight for db/db mice or mice fed with HFD). For insulin tolerance tests, mice were fasted for 6 h and i.p. injected with insulin solution (1 U/kg body weight for male mice; 0.75 U/kg body weight for female mice). Blood glucose levels were measured using glucometer at indicated time points.
(§2) Co-immunoprecipitation and Western blotting analysis. […] Protein bands were detected using a ChemiDoc image system.

[2] = test system: insulin signaling (IRS1, pAKT); test: Insulin sensitivity in ERα deficient primary mouse hepatocytes; type: cell-based
Method: (§3) Primary hepatocytes isolation and cell culture. Primary hepatocytes were isolated. Male mice at age of 8-12 weeks were infused with a perfusion buffer A (calcium and magnesium-free HBSS supplemented with 10 mM HEPES, […], 1 mM glucose, and 1% penicillin-streptomycin, pH 7.4) through portal vein for 6-8 min. Then perfusion buffer A was changed to buffer B (calcium and magnesium-free HBSS supplemented with 10 mM HEPES, 1 mM CaCl2), 1 mM glucose, 1% penicillin-streptomycin, and 0.5 mg/mL collagenase II, pH 7.4). […] Liver cells were suspended and passed through a 70 μm cell strainer, followed by centrifuge at 1700 rpm for 2 min. Pellets were resuspended with Percoll at final concentration of 36% and centrifuged at 1800 rpm for 6 min. The hepatocyte pellet was washed and suspended with DMEM supplemented with 10% FBS and 1% penicillin-streptomycin in collagen-coated plates. The HepG2 cell line was purchased from Abcam and cultured with DMEM medium supplemented with 10% FBS and 1% penicillin-streptomycin in collagen-coated plates. The human embryo kidney (HEK) 293 cell line was purchased from Sigma and cultured with DMEM medium supplemented with 10% FBS and 1% penicillin-streptomycin. FBS-free DMEM medium was used to culture cells during the experiments.
as §2

[3] = test system: insulin signaling (IRS1, pAKT); test: Insulin sensitivity in WT primary mouse hepatocytes (IRS1, insulin-stimulated AKT phosphorylation); type: cell-based
Method: as §3, §2

[4] = test system: 12-month-old female mice; test: AF1 peptide treatment of aging female mice (12-month-old); type: in vivo, mouse; details: 5 mg/kg i.v. twice per week, 5 weeks
Method: Postmenopause in old women is highly associated with increased risk of diabetes.
as §1

[5] = ERα deficient primary hepatocytes

YGRKKRRQRRRTKASGMALLHEPLNRPQLKIPLERDSSKPAVYNY ({FITC}-YGRKKRRQRRRTKASGMALLHEPLNRPQLKIPLERDSSKPAVYNY) [AF1 peptide]
glucose homeostasis ([1]; glucose tolerance test): significantly improved
insulin sensitivity ([1]; insulin tolerance test): significantly improved
insulin-induced AKT phosphorylation in the liver ([1]; liver): could not be rescued
insulin-stimulated AKT phosphorylation in skeletal muscle and eWAT ([1]; skeletal muscle and epididymal white adipose tissue): partially improved
increase in IRS1 protein levels [2, 5]: 80%
increase in pAKT-S473 protein levels [2, 5]: 46%
increase in pAKT-T308 protein levels [2, 5]: 50%
rescue of ERα deficiency-induced insulin resistance ([2]; compared to ERαF/F hepatocytes): partially rescued
enhancement in insulin-stimulated AKT phosphorylation at S473 [3]: 210%
enhancement in insulin-stimulated AKT phosphorylation at T308 [3]: 82%
increase in IRS1 protein levels ([3]; FIG. 6J): 90%
glucose tolerance [4]: nonsignificant increase
insulin sensitivity [4]: modest improvement
